Laboratory results taken from ChEMBL document CHEMBL1201862, “PubChem BioAssay data set” (2004).
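Growth conditions: 96-well plates. Treatment: test compound, 48 hours, 5 concentrations. Analysis: linear interpolation between bracketing concentrations; unreached endpoints set to highest concentration. At the GI50, growth is halved.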 Activity calls are given as the source filed them. No stated cut-off is given here; in the data, active = GI50 up to about 1.1 µM and inactive = higher.

Legend:
Assay in all cases: NCI tumour cell line growth inhibition, 48 h
HCT-116 = tested on: HCT-116
M14 = tested on: M14
OVCAR-5 = tested on: OVCAR-5
U-251 = tested on: U-251
DU-145 = tested on: DU-145
SF-268 = tested on: SF-268
SNB-19 = tested on: SNB-19
COLO 205 = tested on: COLO 205
SN12C = tested on: SN12C
NCI/ADR-RES = tested on: NCI/ADR-RES
MDA-N = tested on: MDA-N
TK-10 = tested on: TK-10
MCF7 = tested on: MCF7
SW-620 = tested on: SW-620
MOLT-4 = tested on: MOLT-4
ACHN = tested on: ACHN
CAKI-1 = tested on: CAKI-1
OVCAR-8 = tested on: OVCAR-8
HT-29 = tested on: HT-29
A549 = tested on: A549
786-0 = tested on: 786-0
LOX IMVI = tested on: LOX IMVI
HOP-92 = tested on: HOP-92
NCI-H460 = tested on: NCI-H460
RPMI-8226 = tested on: RPMI-8226
SF-295 = tested on: SF-295
SK-MEL-28 = tested on: SK-MEL-28
HL-60 = tested on: HL-60
NCI-H226 = tested on: NCI-H226
CCRF-CEM = tested on: CCRF-CEM
T47D = tested on: T47D
Malme-3M = tested on: Malme-3M
SF-539 = tested on: SF-539
RXF 393 = tested on: RXF 393
EKVX = tested on: EKVX
IGROV-1 = tested on: IGROV-1
MDA-MB-231 = tested on: MDA-MB-231
K562 = tested on: K562
BT-549 = tested on: BT-549
HCT-15 = tested on: HCT-15
SNB-75 = tested on: SNB-75
SK-MEL-5 = tested on: SK-MEL-5
Hs-578T = tested on: Hs-578T
MDA-MB-435 = tested on: MDA-MB-435
SK-OV-3 = tested on: SK-OV-3
SK-MEL-2 = tested on: SK-MEL-2
HOP-62 = tested on: HOP-62
OVCAR-4 = tested on: OVCAR-4
A498 = tested on: A498
KM12 = tested on: KM12
NCI-H522 = tested on: NCI-H522
NCI-H23 = tested on: NCI-H23
UACC-62 = tested on: UACC-62
UO-31 = tested on: UO-31
PC-3 = tested on: PC-3
OVCAR-3 = tested on: OVCAR-3
HCC 2998 = tested on: HCC 2998
UACC-257 = tested on: UACC-257

COC(=O)Nc1nc2cc(S(=O)(=O)NC(CC(C)C)C(=O)OC)ccc2[nH]1 (configuration not stated)
GI50 (HCT-116): 2.32 µM (inactive) | GI50 (M14): 1.8 µM (inactive) | GI50 (OVCAR-5): 3.87 µM (inactive) | GI50 (U-251): 4.12 µM (inactive) | GI50 (DU-145): 2.43 µM (inactive) | GI50 (SF-268): 10.8 µM (inactive) | GI50 (SNB-19): 2.45 µM (inactive) | GI50 (COLO 205): 3.22 µM (inactive) | GI50 (SN12C): 7.89 µM (inactive) | GI50 (NCI/ADR-RES): 6.08 µM (inactive) | GI50 (MDA-N): 0.414 µM (active) | GI50 (TK-10): 6.47 µM (inactive) | GI50 (MCF7): 1.65 µM (inactive) | GI50 (SW-620): 3.25 µM (inactive) | GI50 (MOLT-4): 3.67 µM (inactive) | GI50 (ACHN): 11.1 µM (inactive) | GI50 (CAKI-1): 3.66 µM (inactive) | GI50 (OVCAR-8): 3.96 µM (inactive) | GI50 (HT-29): 2.81 µM (inactive) | GI50 (A549): 7.29 µM (inactive) | GI50 (786-0): 3.14 µM (inactive) | GI50 (LOX IMVI): 3.63 µM (inactive) | GI50 (HOP-92): 2.83 µM (inactive) | GI50 (NCI-H460): 4.17 µM (inactive) | GI50 (RPMI-8226): 3.28 µM (inactive) | GI50 (SF-295): 1.83 µM (inactive) | GI50 (SK-MEL-28): 4.35 µM (inactive) | GI50 (HL-60): 2.69 µM (inactive) | GI50 (NCI-H226): 10.8 µM (inactive) | GI50 (CCRF-CEM): 3.52 µM (inactive) | GI50 (T47D): 4.19 µM (inactive) | GI50 (Malme-3M): 3.08 µM (inactive) | GI50 (SF-539): 4.48 µM (inactive) | GI50 (RXF 393): 3.21 µM (inactive) | GI50 (EKVX): 3.93 µM (inactive) | GI50 (IGROV-1): 2.25 µM (inactive) | GI50 (MDA-MB-231): 6.32 µM (inactive) | GI50 (K562): 3.06 µM (inactive) | GI50 (BT-549): 35.7 µM (inactive) | GI50 (HCT-15): 2.81 µM | GI50 (SNB-75): 2.44 µM (inactive) | GI50 (SK-MEL-5): 0.7 µM (active) | GI50 (Hs-578T): 0.818 µM (active) | GI50 (MDA-MB-435): 0.396 µM (active) | GI50 (SK-OV-3): 4.53 µM (inactive) | GI50 (SK-MEL-2): 8.83 µM (inactive) | GI50 (HOP-62): 3.48 µM (inactive) | GI50 (OVCAR-4): 4.83 µM (inactive) | GI50 (A498): 3.13 µM (inactive) | GI50 (KM12): 2.19 µM (inactive) | GI50 (NCI-H522): 0.197 µM (active) | GI50 (NCI-H23): 3.25 µM (inactive) | GI50 (UACC-62): 4.01 µM (inactive) | GI50 (UO-31): 5.96 µM (inactive) | GI50 (PC-3): 2.37 µM (inactive) | GI50 (OVCAR-3): 0.721 µM (active)

O=C1/C(=C/c2ccc(Cl)cc2)N=C(c2ccccc2)N1c1nc2ccc(Sc3ccccc3)cc2[nH]1
GI50 (HCT-116): 24.2 µM (inactive) | GI50 (M14): 16.3 µM (inactive) | GI50 (OVCAR-5): 25.6 µM (inactive) | GI50 (U-251): 31.3 µM (inactive) | GI50 (DU-145): 35.3 µM (inactive) | GI50 (SF-268): 36.3 µM (inactive) | GI50 (SNB-19): 37.6 µM (inactive) | GI50 (COLO 205): 19.7 µM (inactive) | GI50 (SN12C): 29 µM (inactive) | GI50 (NCI/ADR-RES): 23.6 µM (inactive) | GI50 (MDA-N): 10.6 µM (inactive) | GI50 (TK-10): 23.8 µM (inactive) | GI50 (MCF7): 22.6 µM (inactive) | GI50 (SW-620): 23.7 µM (inactive) | GI50 (MOLT-4): 25.3 µM (inactive) | GI50 (ACHN): 36.4 µM (inactive) | GI50 (CAKI-1): 30.1 µM (inactive) | GI50 (OVCAR-8): 30.1 µM (inactive) | GI50 (HT-29): 19.1 µM (inactive) | GI50 (A549): 36.1 µM (inactive) | GI50 (HCC 2998): 17.4 µM (inactive) | GI50 (786-0): 25.9 µM (inactive) | GI50 (LOX IMVI): 23.9 µM (inactive) | GI50 (HOP-92): 45.9 µM (inactive) | GI50 (NCI-H460): 22.7 µM (inactive) | GI50 (RPMI-8226): 19.7 µM (inactive) | GI50 (SF-295): 25.9 µM (inactive) | GI50 (SK-MEL-28): 23.4 µM (inactive) | GI50 (HL-60): 15.8 µM (inactive) | GI50 (CCRF-CEM): 22.4 µM (inactive) | GI50 (T47D): 23.1 µM (inactive) | GI50 (Malme-3M): 23.4 µM (inactive) | GI50 (RXF 393): 26.3 µM (inactive) | GI50 (EKVX): 36.3 µM (inactive) | GI50 (IGROV-1): 40.6 µM (inactive) | GI50 (MDA-MB-231): 35.2 µM (inactive) | GI50 (K562): 17.5 µM (inactive) | GI50 (UACC-257): 22.3 µM (inactive) | GI50 (BT-549): 21.7 µM (inactive) | GI50 (HCT-15): 29.2 µM | GI50 (SNB-75): 15.8 µM (inactive) | GI50 (SK-MEL-5): 15.5 µM (inactive) | GI50 (Hs-578T): 29.2 µM (inactive) | GI50 (MDA-MB-435): 10.2 µM (inactive) | GI50 (SK-OV-3): 41.4 µM (inactive) | GI50 (SK-MEL-2): 15.6 µM (inactive) | GI50 (HOP-62): 40.3 µM (inactive) | GI50 (OVCAR-4): 34.7 µM (inactive) | GI50 (A498): 19.8 µM (inactive) | GI50 (KM12): 20.7 µM (inactive) | GI50 (NCI-H522): 22.4 µM (inactive) | GI50 (NCI-H23): 30.1 µM (inactive) | GI50 (UACC-62): 14 µM (inactive) | GI50 (UO-31): 34.8 µM (inactive) | GI50 (PC-3): 30.6 µM (inactive) | GI50 (OVCAR-3): 35.8 µM (inactive)
